Reference: publication PMC11579929, “Proline-Modified RWn Peptides: Enhanced Antifungal Efficacy and Synergy with Conventional Antibiotics for Combating Resistant Fungal Infections” (ACS Omega, 2024)
Converted amounts (≈) assume the structure as drawn. Where two headings read alike, the source gives them in different places. Where no end group is shown, it is not given here.

Tests used:
C. albicans [ATCC 90028] = assay: microbe, parasite or virus in culture; type: cell-based, Candida albicans; details: for MIC: Candida albicans
[1] = tested on: C. neoformans [ATCC 208821]; assay: microbe, parasite or virus in culture; type: cell-based, Cryptococcus neoformans; details: for MIC: Cryptococcus neoformans
human red blood cells = assay: Hemolytic activity; type: cell-based; details: for Hemolytic Toxicity (<32 mg/mL): yes/no below as printed
Procedure: (§1) The antifungal activities were evaluated by determining the minimum inhibitory concentration (MIC) against C. albicans [ATCC 90028] and C. neoformans [ATCC 208821] that inhibits 99% fungal growth. Cytotoxicity and hemolytic activities were assessed against human embryonic kidney (HEK293) cells and human red blood cells, respectively. The antimicrobial screening was performed by The Community for Antimicrobial Drug Discovery (CO-ADD).[31]

Cytotoxicity assay = type: cell-based; details: human, HEK293 cells
Procedure: as §1, with “(CO-ADD).[31] Cytotoxicity assays were performed on active compounds to assess their selectivity toward microbial cells. The protocol for the cytotoxicity assay is described in the Supporting Information.[28]” for “(CO-ADD).[31]”

HEK293 and RBC = assay: Toxicity (HEK293 and RBC), stated jointly; type: cell-based, human
Procedure: as §1, with “(CO-ADD).[31] Cytotoxicity assays were performed on active compounds to assess their selectivity toward microbial cells. The protocol for the cytotoxicity assay is described in the Supporting Information.[28]” for “(CO-ADD).[31]”

Row | Compound | Hemolytic Activity (human red blood cells; Table 2, human red blood cells) [µg/mL] | Hemolytic Toxicity (<32 mg/mL) (human red blood cells) | C. albicans MIC (C. albicans [ATCC 90028]; ATCC 90028, 3 h) [µg/mL] | CC50 (Cytotoxicity assay) [µg/mL] | Hemolytic Activity (human red blood cells; Table 3, unit not given) | other results
1 | CC1(C)S[C@@H]2[C@H](NC(=O)[C@H](N)c3ccccc3)C(=O)N2[C@H]1C(=O)O [AMP, ampicillin, reference compound] |  |  |  |  |  | MIC (C. albicans [ATCC 90028]; ATCC90028, antibiotic alone or 4.75 mg antibiotic mixed with 0.25 mg of peptide, read-out: C. albicans MIC): > 32 µg/mL; MIC ([1]; ATCC208821, antibiotic alone or 4.75 mg antibiotic mixed with 0.25 mg of peptide, read-out: C. neoformans MIC): > 32 µg/mL
2 | OC(Cn1cncn1)(Cn1cncn1)c1ccc(F)cc1F [Fluconazole, reference compound] |  |  |  |  |  | MIC (C. albicans [ATCC 90028]; ATCC90028, BMD method, YNB, 384 NBS plates, average of ≥ 6 independent biological replicates, antifungal standard, read-out: MIC Candida albicans ATCC 90028): 0.125 µg/mL (≈ 0.408 µM); MIC ([1]; ATCC208821, BMD method, YNB, 384 NBS plates, average of ≥ 6 independent biological replicates, antifungal standard, read-out: MIC Cryptococcus neoformans H99 ATCC 208821): 8 µg/mL (≈ 26.1 µM)
3 | CC[C@H](C)[C@H](N)C(=O)N[C@@H](CC(C)C)C(=O)N1CCC[C@H]1C(=O)N[C@@H](Cc1c[nH]c2ccccc12)C(=O)N[C@@H](CCCCN)C(=O)N[C@@H](Cc1c[nH]c2ccccc12)C(=O)N1CCC[C@H]1C(=O)N[C@@H](Cc1c[nH]c2ccccc12)C(=O)N[C@@H](Cc1c[nH]c2ccccc12)C(=O)N1CCC[C@H]1C(=O)N[C@@H](Cc1c[nH]c2ccccc12)C(=O)N[C@@H](CCCNC(=N)N)C(=O)N[C@@H](CCCNC(=N)N)C(N)=O [Indolicidin, reference compound] | >32 | No |  |  |  | C. albicans MIC (C. albicans [ATCC 90028]; ATCC 90028, concentration that inhibits 99% fungal growth, peptide alone): >32 µg/mL; CC50 (Cytotoxicity assay; Table 2, read-out: HEK293 Toxicity): > 32 µg/mL; C. neoformans MIC ([1]; ATCC 208821, concentration that inhibits 99% fungal growth, peptide alone): >32 µg/mL
4 | N=C(N)NCCC[C@H](NC(=O)[C@H](Cc1c[nH]c2ccccc12)NC(=O)[C@H](CCCNC(=N)N)NC(=O)[C@H](Cc1c[nH]c2ccccc12)NC(=O)[C@H](CCCNC(=N)N)NC(=O)[C@H](Cc1c[nH]c2ccccc12)NC(=O)[C@H](CCCNC(=N)N)NC(=O)[C@H](Cc1c[nH]c2ccccc12)NC(=O)[C@H](CCCNC(=N)N)NC(=O)[C@H](Cc1c[nH]c2ccccc12)NC(=O)[C@@H](N)CCCNC(=N)N)C(=O)N[C@@H](Cc1c[nH]c2ccccc12)C(N)=O [RW6, (RW)6-NH2] | ≤0.25 | Yes | 8 | > 32 |  | 
5 | CN[C@H](CC(C)C)C(=O)N[C@H]1C(=O)N[C@@H](CC(N)=O)C(=O)N[C@H]2C(=O)N[C@H]3C(=O)N[C@H](C(=O)N[C@H](C(=O)O)c4cc(O)cc(O)c4-c4cc3ccc4O)[C@H](O)c3ccc(c(Cl)c3)Oc3cc2cc(c3O[C@@H]2O[C@H](CO)[C@@H](O)[C@H](O)[C@H]2O[C@H]2C[C@](C)(N)[C@H](O)[C@H](C)O2)Oc2ccc(cc2Cl)[C@H]1O [VAN, vancomycin, reference compound] |  |  |  |  |  | MIC (C. albicans [ATCC 90028]; ATCC90028, read-out: C. albicans MIC): > 32 µg/mL; MIC ([1]; ATCC208821, read-out: C. neoformans MIC): > 32 µg/mL
6 | RWRWPRWRW-NH2 [RW4P] |  |  | >32 | > 32 | >32 | C. neoformans MIC ([1]; ATCC 208821, 3 h): ≤0.25 µg/mL
7 | RWRWPRWRWPRWRW-NH2 [RW6–2P] |  |  |  | > 32 | >32 | Toxicity in HEK293 or red blood cells (in words) (HEK293 and RBC): without any detectable toxicity
8 | RWRWRWPRWRWRW-NH2 [RW6P] |  |  |  | > 32 | >32 | Toxicity in HEK293 or red blood cells (in words) (HEK293 and RBC): without observable toxicity
9 | RWRWRWRW-NH2 [RW4, (RW)4-NH2] | >32 | No |  | > 32 |  | 
10 | RWRWRWRWPRWRWRWRW-NH2 [RW8P] |  |  | >32 | > 32 | >32 | C. neoformans MIC ([1]; ATCC 208821, 3 h): ≤0.25 µg/mL
11 | RWRWRWRWRWRWRWRW-NH2 [RW8, (RW)8-NH2] | 0.452 | Yes | 32 | > 32 |  | C. neoformans MIC ([1]; ATCC 208821, 3 h): 0.5 µg/mL
